Reference: patent publication US20180265463A1, “Vitamin D3 Derivatives and Pharmaceutical Use Thereof” (Kyoto University, priority 2014, published 2018)
Where “and” joins values, the source holds several entries; their conditions need not be identical. Identical values can stand only once. Entries after “also recorded” stand apart in the source; their conditions may differ.

Columns and labels:
Assay type in all cases: cell-based, Chinese hamster
SREBP-2 = assay: Western-blot analysis of SREBP-2 in CHO-K1 cells; conditions: 5 μM, 18 h, CHO-K1 cells (FIG. 3)
Protocol: CHO-K1 cells were treated with DMSO alone or each molecule (5 μM) for 18 h. The levels of precursor and mature forms of SREBP-2 were analyzed by Western-blot. Western-blots of actin are shown in lower panel as a loading control.
CHO-K1 cells were treated with DMSO alone or each molecule (5 μM) for 16 h. The levels of precursor and mature forms of SREBP-2 were analyzed by Western-blot. Western-blots of actin are shown in lower panel as a loading control.
(§1) On day 0, CHO-K1 cells were added to 6-well plates at 3.0×10^5 cells per well in medium A. On day 1, the cells were washed with PBS, and then incubated in medium B in the absence or presence of specific test compounds (5 μM). After 16 h of incubation, the cells were washed three times with cold PBS, and lysed with a buffer A (50 mM Tris-HCl (pH 7.5), 150 mM NaCl, 1% (v/v) Nonidet P40, 0.5% (w/v) sodium deoxycholate, 8 M urea, and protease inhibitor cocktail (Nacalai)). The cell lysate were passed 16 times through a 25 G needle and centrifuged at 7,000 g at 4° C. for 10 min. The supernatants were transferred to new tubes, and the pellets were extracted with a buffer A. The resulting buffer was centrifuged at 7,000 g at 4° C. for 10 min, and the supernatants were combined to the previous ones. The resulting lysate was mixed with 0.20 volume of 6×SDS sample buffer (Nacalai) and incubated at room temperature for 30 min. The samples were separated on a 10% SDS-PAGE gel and blotted, using mouse monoclonal antibodies against SREBP-2 (IgG-7D4), SCAP (IgG-9D5), c-Myc (IgG1-MC045), and actin (AC-40). The specific bands were visualized using enhanced chemiluminescence (ECL Prime Western Blotting Detection Reagent, GE Healthcare) on an ImageQuant LAS 500 (GE Healthcare).

SREBP = assay: SRE-driven luciferase reporter assay of SREBP activation; conditions: luciferase reporter in CHO-K1 cells, lipid-depleted medium, 20-24 h, normalized to β-galactosidase; averages of three independent experiments; read-out: IC50 (μM), inhibitory effect on the activation of SREBP
Protocol: The transfected cells were treated with DMSO alone, sterols (10 μg/mL cholesterol and 1.0 μg/mL 25-HC), or varied concentrations of 25(OH)D in a medium containing lipid-free serum. Luciferase activity was measured after 20 h incubation, and the data were normalized to β-galactosidase activity. Values are the mean±SD of three independent experiments.
The molecules in a chemical library which consists of 280 endogenous lipid related molecules were screened for their ability to inhibit the expression of a luciferase reporter gene. In this gene, three repeats of sterol regulatory elements (SREs) control expression of luciferase. Lipid depletion activates SREBPs, which bind to the SRE domain and work as transcription factors to express luciferase. The SREBP-responsive reporter construct was co-transfected into Chinese hamster ovary K1 (CHO-K1) cells, along with a control β-galactosidase (β-gal) reporter gene. A constitutively active actin promoter in the reporter gene drives the expression of β-gal. The levels of luciferase expression from the SREBP-responsive reporter gene were normalized to the levels of β-gal expression.
CHO-K1 cells were maintained in a medium A (1:1 mixture of Ham's F-12 medium and Dulbecco's modified Eagle medium, supplemented with 100 units/mL penicillin, 100 μg/mL streptomycin sulfate, and 5% (v/v) fetal bovine serum) at 37° C. under humidified 5% CO2.
On day 0, CHO-K1 cells were added to 96-well plates at 1.0×10^4 cells per well in medium A. On day 1, the cells were co-transfected with an SRE-1-driven luciferase reporter construct (pSRE-Luc) and pAc-β-gal at a 20/1 ratio, using FuGENE(Registered trademark) HD transfection reagent (Promega), according to the manufacturer's protocol. After 8-12 h of incubation, the cells were washed with PBS buffer, then incubated in medium B containing the specific test compounds. […] After 20-24 h of incubation, the cells in each well were lysed by freeze-thaw with Reporter Lysis Buffer (Promega), and aliquots were used to measure luciferase and β-galactosidase activities. Luciferase activity was measured using the Steady-Glo(Registered trademark) Luciferase Assay System (Promega), and β-galactosidase activity was measured using the β-galactosidase Enzyme Assay System (Promega). Luciferase activity was normalized to β-galactosidase activity.

SCAP [1] = assay: Western-blot analysis of SCAP levels and ubiquitination in CHO-K1 cells
Protocol: (§2) After incubation for the indicated time, the levels of SCAP and precursor and mature forms of SREBP-2 were analyzed by Western-blot. Western-blots of actin are shown in lower panel as a loading control.
(§3) CHO-K1 cells were treated with DMSO alone or 25(OH)D (5 μM) in the presence or absence of MG-132 (10 μM) for 5 h. The levels of Myc-SCAP were analyzed by Western-blot. Western-blots of actin are shown in lower panel as a loading control.
(§4) CHO-K1 cells were treated with DMSO alone (−) or 25(OH)D (5 μM, +). After 2 h incubation, each dish received MG-132 (10 μM). Following incubation for 2 h, cells were harvested and subjected to immunoprecipitation with monoclonal anti-c-Myc-conjugated agarose beads. The ubiquitination of SCAP was analyzed by Western-blot.
as §1

SCAP [2] = biological target: T1, SCAP (Cricetulus griseus, UniProt P97260); assay: as above; conditions: 5 μM, CHO-K1 cells, different times (FIG. 4)
T1 construct: endogenous in cells; host or cells: CHO-K1
T1 sequence (P97260 1-1276): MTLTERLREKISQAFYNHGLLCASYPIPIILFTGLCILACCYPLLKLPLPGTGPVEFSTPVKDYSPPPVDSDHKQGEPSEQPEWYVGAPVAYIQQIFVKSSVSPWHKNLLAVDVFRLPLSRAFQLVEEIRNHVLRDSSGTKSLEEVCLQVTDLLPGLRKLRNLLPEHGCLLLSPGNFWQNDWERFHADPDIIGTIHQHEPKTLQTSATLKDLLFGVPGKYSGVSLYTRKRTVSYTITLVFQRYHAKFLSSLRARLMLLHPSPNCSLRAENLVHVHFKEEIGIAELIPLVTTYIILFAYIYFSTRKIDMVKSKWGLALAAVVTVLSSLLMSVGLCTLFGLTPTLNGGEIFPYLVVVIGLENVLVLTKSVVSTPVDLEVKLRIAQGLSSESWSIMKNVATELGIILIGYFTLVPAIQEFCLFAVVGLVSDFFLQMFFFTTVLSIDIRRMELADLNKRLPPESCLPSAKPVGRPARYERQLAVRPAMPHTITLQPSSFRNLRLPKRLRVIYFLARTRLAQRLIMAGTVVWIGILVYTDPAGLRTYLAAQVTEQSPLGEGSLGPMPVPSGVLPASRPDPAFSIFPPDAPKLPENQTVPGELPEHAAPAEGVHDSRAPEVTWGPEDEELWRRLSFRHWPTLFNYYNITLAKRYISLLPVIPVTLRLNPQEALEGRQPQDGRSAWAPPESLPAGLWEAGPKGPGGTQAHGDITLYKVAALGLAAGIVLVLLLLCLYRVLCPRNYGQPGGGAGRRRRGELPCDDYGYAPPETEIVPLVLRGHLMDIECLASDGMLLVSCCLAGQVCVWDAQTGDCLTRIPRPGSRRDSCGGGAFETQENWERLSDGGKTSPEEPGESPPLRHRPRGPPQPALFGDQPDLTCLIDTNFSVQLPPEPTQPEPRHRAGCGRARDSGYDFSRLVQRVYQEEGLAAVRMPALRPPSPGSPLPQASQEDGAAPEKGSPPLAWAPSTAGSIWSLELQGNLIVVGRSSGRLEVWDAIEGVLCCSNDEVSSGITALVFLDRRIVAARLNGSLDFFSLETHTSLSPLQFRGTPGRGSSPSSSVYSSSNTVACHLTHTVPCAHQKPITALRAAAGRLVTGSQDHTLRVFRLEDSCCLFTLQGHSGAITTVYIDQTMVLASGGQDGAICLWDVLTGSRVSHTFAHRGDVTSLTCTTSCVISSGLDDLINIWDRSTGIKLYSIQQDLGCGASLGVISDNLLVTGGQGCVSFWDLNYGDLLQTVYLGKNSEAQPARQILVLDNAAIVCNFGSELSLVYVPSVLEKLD
Protocol: as §2, §3, §4, §1

[3] = system: SREBP-2 fragment fused to PLAP (PLAP-BP2513-1141); assay: PLAP-BP assay (secreted alkaline phosphatase reporter of SREBP translocation and processing); conditions: VD derivatives 10 μM, 20 h, CHO-K1 co-transfected with PLAP-BP2 and SCAP; average of two experiments

IC50 (SREBP): 1 µM and 1.09 µM
levels of SCAP (SCAP [2]): reduced
Compound: C=C1CC[C@H](O)C/C1=C/C=C1\CCC[C@]2(C)[C@@H]([C@H](C)CCCC(C)(C)O)CC[C@@H]12 [25(OH)D, 25-hydroxyvitamin D3]
level of mature form of SREBP (SREBP-2): decreased
level of precursor form of SREBP (SREBP-2): decreased
ubiquitination of SCAP (SCAP [1]; 5 μM, 2 h then MG-132 10 μM for 2 h, immunoprecipitation (FIG. 6)): accelerated
decrease in the levels of SCAP (Myc-SCAP) on addition of MG-132 (SCAP [1]; 25(OH)D 5 μM with MG-132 10 μM, 5 h (FIG. 5)): cancelled
secretion of PLAP [3]: inhibited the secretion of PLAP to a greater extent than sterol; also recorded: caused a greater decrease in PLAP secretion than did cholesterol
